Experimental data reported in patent EP2982682A1, “CHIMERIC PEPTIDE AND PHARMACEUTICAL COMPOSITION FOR TREATING ONCOLOGICAL DISEASES” (Obshestvo S Ogranichennoj Otvetstvennost`yu "Metamax", priority 2013, dated 2014).
Square brackets hold non-standard residues; d marks the D form. Ends that are not written are not given here. Ahx = NCCCCCC(=O)O

Assays:
[1] = test system: HCT116 (colon adenocarcinoma); assay: Cytotoxic activity on proliferating cell lines, Annexin V/PI flow cytometry; format: cell-based, human; settings: 5-40 µM, 24 hours
Protocol: (§1) We studied the effect of peptide sequences D37K, F26K-1, F26K-2, W26K-1, W26K-2 on the cells of transplanted cell cultures MCF-7 (breast cancer), A549 (lung adenocarcinoma), SKOV (ovarian cancer) and HCT116 (colon adenocarcinoma).
(§2) When preparing for the experiment the cells cultures were placed in 24-well plates in amount of 1 * 10^4 cells per well, incubated for 48 hours at 37°C and 5% CO2, medium DMEM (PanEco, Russia), containing glutamine, gentamicin, 10% PBS. After such incubation the cell cultures formed loose mono-layer. Experimental set-up: culture medium was replaced with the medium containing the study peptides in the concentrations of 5 µM, 10 µM, 20 µM, 40 µM; in the control samples the medium contained DMSO 20 µL to determine the effect of solvent (peptides were dissolved in DMSO). Incubation time was 24 hours. Then the cells were carefully removed from the matrix using trypsin (cells in the wells with peptides were attached stronger than the control sample), the medium was removed via centrifugation at 3,000 rounds for 7 minutes, supernatant fluid was removed and the staining was performed using double mark Annexin V/PI. Analysis was performed using flow cytometer and evaluated the number of cells including Annexin V - apoptosis, the number of cells including propidium iodide - dead cells, the number of intact cells - live cells.

HCT-116 = assay: Cytostatic effect: cell cycle phases on DNA-histograms after synchronization in G0/G1; format: cell-based, human
Protocol: (§3) Using cell lines MCF-7, HCT-116, A549 (lung adenocarcinoma) and SKOV (ovarian cancer) we studied the effect of the peptide sequences on the cells proliferative activity. The experiments involved synchronization of the cells in G0/G1-phase of the cells cycle using depleted culture medium. The cells in 24-well plate were held for 48 hours in the medium containing 0.5% PBS, then the synchronization block was removed via replacement of the medium with one containing 5% PBS and the study peptides in different concentrations. It was incubated for 24 hours, and then the cells were removed from the matrix using trypsin, washed in PSB, fixed in ethanol. Staining of samples, washing from ethanol in PBS using centrifugation, incubation with RNA-ase, staining with propidium iodide. Analysis was performed using flow cytometry, we evaluated the distribution of cells in the cell cycle phases on DNA-histograms using ModFit 3.0 software. For cells cultures MCF-7 and HCT-116 we studied the effect of 5 peptide sequences in concentrations of 10 and 40 µM. It was shown that the study sequences are able to decrease the proliferating activity of the dividing cells (Figure 9).

pRb in HCT-116 = assay: Level of underphosphorylated pRb by flow cytometry; format: cell-based, human
Text: (§4) Although the literature describes the retention of such peptides properties to inhibit a phosphorylating function for cyclin-dependent kinases, this was confirmed in cell extracts. We monitored changes in the level of pRB phosphorylation - molecular target of type D cyclin kinase against the background of the investigated peptides, including the sequences, having homology with p16INK4a, at the cellular level with the help of flow cytometry method.
(§5) Flow cytometry allows to render the cells, where the pRb product is in the "underphosphorylated" state. The fluorescently labeled antibodies interact with "underphosphorylated" pRb.
(§6) To determine the amount of "underphosphorylated" pRb, a series of experiments was performed, where the study peptide sequences were added to the cell cultures, synchronized with the help of depleted cell culture medium method (MCF-7, HCT-116), after removing the synchronization block, then the cells were sampled every two hours. A part of the cells from each plate was fixed to further define the phases of the cell cycle, and to determine the amount of the "underphosphorylated" pRb. Also a negative control was set in the form of synchronized cells samples, but without added peptide. It was shown that introduction of the peptide sequences into the cell culture inhibits the pRb phosphorylation and reduces its maximum level in the culture (Figure 19).
As it is seen in Figure 19, the level of "underphosphorylated" pRb begins to grow after removal of the synchronization block in the control samples without addition of the peptide, and to a certain point (4 or 6 hours of incubation), depending on the cell line, it reaches a maximum and then begins to decline. In the samples with peptides the level of "underphosphorylated" pRb begins to increase later and reaches its maximum after 12-18 hours of incubation, the delay in reaching the maximum level of pRb depends on concentration of the peptide sequences. […] We analyzed the level of "underphosphorylated" pRb every two hours; the maximum incubation time was 24 hours.

MCF-7 = assay: Cytostatic effect: cell cycle phases on DNA-histograms after synchronization in G0/G1; format: cell-based; settings: 10 and 40 µM
Protocol: as §3

SKOV (ovarian cancer) = assay: Cytostatic effect: cell cycle phases and hypodiploid peak on DNA-histograms after synchronization; format: cell-based; settings: 5-40 µM, 24 hours
Protocol: as §3
When studying the effect of the peptide sequences on SKOV cells culture the incubation was performed with the sequences F26K-1, F26K-2, W26K-1, and W26K-2. […]

MCF-7 (breast cancer) [2] = assay: Cytotoxic activity on proliferating cell lines, Annexin V/PI flow cytometry; format: cell-based; settings: 5-40 µM, 24 hours
Protocol: as §1, §2

pRb in MCF-7 = assay: Level of underphosphorylated pRb by flow cytometry; format: cell-based; settings: 10 and 40 µM
Text: as §4, §5, §6

pRb in SKOV cell line = assay: Level of underphosphorylated pRb by flow cytometry; format: cell-based; settings: 10 and 40 µM
Protocol: as §5
In the study of the "underphosphorylated" pRb level using SKOV cell line, the delay effect in formation of "underphosphorylated" pRb was lower than for cultures MCF-7 and HCT-116, although this cell line was previously shown to have the proliferation delay effect during incubation of the cells with the study peptide sequences. […] Obvious "underphosphorylated" pRb formation delay effect compared to the control sample, however, in the case of SKOV cell line, was somewhat lower than that of cultures of MCF-7 and HCT-116.

MCF-7 (breast cancer) [3] = assay: Combined effect with Taxol or 5-fluorouracil, Annexin and propidium iodide flow cytometry; format: cell-based; settings: 10, 20, 30 µM, 24 hours
Protocol: In cell culture MCF-7 (breast cancer) there was investigated the combined effect of DA, 5-fluorouracil and Taxol, and the sequences D37K and F26K-2 (in the cytotoxicity studies the sequence had the most pronounced effect on the MCF-7 culture). The cells were grown in 24-well plates to 70% of the monolayer, followed by replacement of the medium with the medium containing the target sequence and drugs in concentrations of 10, 20 and 30 µM. The incubation time was 24 hours. Analyzed cells, which entered into apoptosis, were detected using Annexin and propidium iodide staining, flow cytometry.

Bcl-2 in HCT-116 cells = assay: Level of Bcl-2 in cells, antibody staining and flow cytometry; format: cell-based, human; settings: 24 hours
Protocol: Example 4. Investigation of the peptide sequences effect on change in the level of Bcl-2 Monoclonal antibodies Anti Human Bcl-2 (Caltag Laboratories, USA) were used to estimated change in the level of Bcl-2 in HCT-116 cells when incubated with the study peptide sequence. The cells were transferred to a 24-well plate at 1 x 10^4 per well, grown for 48 hours under normal conditions (medium DMEM, 10%), then synchronized using the depleted medium containing 0.5% PBS for 48 hours. Upon removing the synchronizing block the medium containing 10% PBS was added to the cells, and the peptide sequences were studied at concentrations of 10 and 40 µM. Incubation with the peptides was performed for 24 hours, then the culture was removed with the help of trypsin, fixed for one hour with PBS containing 1% formaldehyde, and then fixed with ethanol. The staining and the analysis were performed according to the antibodies manufacturer's instructions. […] It is thereby shown that the apoptosis induced by introduction of the peptide sequences into the culture medium is explained by influence of the peptides on specific molecular processes of the cell.

Question: H-FLDAILLI[Ahx] [F26K-2] was tested. Which “apoptosis level (Annexin V)” value [1] did it give?
Answer: The value was “more pronounced pro-apoptosis effect”.

Question: And the antiproliferative effect (HCT-116; 10 and 40 µM)?
Answer: The antiproliferative effect was “most clear antiproliferative effect”.

Question: What about the “delay in cells leaving the rest phase” value (HCT-116; synchronized culture, 40 µM (Fig. 10)) of the same substance?
Answer: Its value is 8 to 12 h.

Question: What about the “delay in formation of "underphosphorylated" pRb” value (pRb in HCT-116; 10 and 40 µM) of the same substance?
Answer: The value was “greatest effect of the delay”.

Question: And the “incubation time of maximum level of "underphosphorylated" pRb” value (pRb in HCT-116; peptide 10 µM)?
Answer: The value was 16 hours.

Question: What about the “incubation time of maximum level of "underphosphorylated" pRb” value (pRb in HCT-116; peptide 40 µM) of the same substance?
Answer: The value was 20 hours.

Question: What about the antiproliferative effect (MCF-7) of the same substance?
Answer: Its antiproliferative effect is “most clear antiproliferative effect”.

Question: And the “antiproliferative effect (cells in G0/G1 and S+G2/M)” value (SKOV (ovarian cancer))?
Answer: The value was “caused the delay of proliferation”.

Question: And the “apoptosis level (Annexin V)” value (MCF-7 (breast cancer) [2])?
Answer: The value was “more pronounced pro-apoptosis effect”.

Question: What about the “delay in the formation of "underphosphorylated" pRb” value (pRb in MCF-7) of the same substance?
Answer: Its value is “greatest delay”.

Question: What about the “delay in formation of "underphosphorylated" pRb as compared to the control” value (pRb in SKOV cell line) of the same substance?
Answer: Its value is 4-10 hours.

Question: What about the “combined use with 5-fluorouracil, cytotoxic effect” value (MCF-7 (breast cancer) [3]) of the same substance?
Answer: Its value is “linear amplification”.

Question: What about the “combined use with Taxol, level of apoptosis” value (MCF-7 (breast cancer) [3]) of the same substance?
Answer: The value was “summation of cytotoxic effects”.

Question: What about the “inhibition of the expression of Bcl-2 protein” value (Bcl-2 in HCT-116 cells; 10 and 40 µM) of the same substance?
Answer: The value was “strongest inhibition”.

Question: What about the “decrease of the level of Bcl-2-positive cells” value (Bcl-2 in HCT-116 cells; 40 µM) of the same substance?
Answer: The value was “over 15%”.
